Columns and labels:
[1] = In vivo stability in mouse urine at 1 h p.i. (radio-HPLC); parameters: species or system C57BL/6J mice
Protocol: All animal experiments were conducted in according to the guidelines established by Canadian Council on Animal Care and approved by Animal Ethics Committee of the University of British Columbia. Mice were housed under pathogen-free conditions and kept on twelve hours light and twelve hours dark cycle in the Animal Research Centre, BC Cancer Research Centre, Vancouver, Canada. C57BL/6J mice were anesthetized by inhalation with 2% isoflurane in 2.0 L/min of oxygen, and approximately 4-6 MBq of [^68Ga]Ga-CCZ01099 or [^68Ga]Ga-CCZ01048 was injected intravenously. The mice were allowed to recover and roam freely in their cages. At 1 h post-injection (p.i.), the mice were euthanized by CO2 inhalation and their urine was collected and analyzed on HPLC for metabolite using the conditions described above. In vivo urine stability of [^68Ga]Ga-CCZ01099 and [^68Ga]Ga-CCZ01048 were 34.0±10.4% and ≥98.0% (n≥3), respectively.
The in vivo stability tests in mouse urine were performed as described in Example 1. […] With systematic reduction in the number of N-methylations for the αMSH analogues, a decrease in in vivo stability was observed.

[2] = Biodistribution of 177Lu-labeled αMSH analogues in mice bearing SK-MEL-1 human melanoma; settings: male, mouse, total radioactivity; for tissue to tissue ratio at 1 h: 1 h p.i.; for tissue to tissue ratio at 1 h / tissue to tissue ratio at 4 h / tissue to tissue ratio at 24 h / tissue to tissue ratio at 120 h: NRG mice, SK-MEL-1 melanoma; for tissue to tissue ratio at 4 h: 4 h p.i.; for tissue to tissue ratio at 24 h: 24 h p.i.; for tissue to tissue ratio at 120 h: 120 h p.i.
Protocol: The SK-MEL-1 human melanoma cell line (HTB-67) was obtained commercially from ATCC. SK-MEL-1 cells were cultured in Eagle's Minimum Essential Medium (StemCell Technologies) under the same conditions as described in Example 1. Immunodeficient NOD.Cg-Rag1tm1Mom I12rgtm1Wjl/SzJ (NRG) male mice were obtained from an in-house breeding colony at the BC Cancer Research Centre. For tumor implantation, male NRG mice were anesthetized by inhalation with 2% isoflurane, and 5 million SK-MEL-1 cells were inoculated subcutaneously on the right dorsal flank. Mice were used for imaging or biodistribution studies when the tumors reached 6-8 mm in diameter in 16-20 days.
Biodistribution studies were performed as described in Example 3.

[3] = NRG (NOD.Cg-Rag1tm1Mom I12rgtm1Wjl/SzJ), fat, iv
[4] = NRG (NOD.Cg-Rag1tm1Mom I12rgtm1Wjl/SzJ), seminal glands, iv
[5] = NRG (NOD.Cg-Rag1tm1Mom Il2rgtm1Wjl/SzJ), SK-MEL-1 tumour
[6] = NRG (NOD.Cg-Rag1tm1Mom Il2rgtm1Wjl/SzJ), adrenal glands
[7] = NRG (NOD.Cg-Rag1tm1Mom Il2rgtm1Wjl/SzJ), blood
[8] = NRG (NOD.Cg-Rag1tm1Mom Il2rgtm1Wjl/SzJ), bone
[9] = NRG (NOD.Cg-Rag1tm1Mom Il2rgtm1Wjl/SzJ), brain
[10] = NRG (NOD.Cg-Rag1tm1Mom Il2rgtm1Wjl/SzJ), heart
[11] = NRG (NOD.Cg-Rag1tm1Mom Il2rgtm1Wjl/SzJ), intestine
[12] = NRG (NOD.Cg-Rag1tm1Mom Il2rgtm1Wjl/SzJ), kidneys
[13] = NRG (NOD.Cg-Rag1tm1Mom Il2rgtm1Wjl/SzJ), liver
[14] = NRG (NOD.Cg-Rag1tm1Mom Il2rgtm1Wjl/SzJ), lungs
[15] = NRG (NOD.Cg-Rag1tm1Mom Il2rgtm1Wjl/SzJ), muscle
[16] = NRG (NOD.Cg-Rag1tm1Mom Il2rgtm1Wjl/SzJ), pancreas
[17] = NRG (NOD.Cg-Rag1tm1Mom Il2rgtm1Wjl/SzJ), spleen
[18] = NRG (NOD.Cg-Rag1tm1Mom Il2rgtm1Wjl/SzJ), stomach
[19] = NRG (NOD.Cg-Rag1tm1Mom Il2rgtm1Wjl/SzJ), testes
[20] = NRG (NOD.Cg-Rag1tm1Mom Il2rgtm1Wjl/SzJ), thyroid
[21] = NRG (NOD.Cg-Rag1tm1Mom Il2rgtm1Wjl/SzJ), tumour/blood
[22] = NRG (NOD.Cg-Rag1tm1Mom Il2rgtm1Wjl/SzJ), tumour/kidney
[23] = NRG (NOD.Cg-Rag1tm1Mom Il2rgtm1Wjl/SzJ), tumour/muscle
[24] = NRG (NOD.Cg-Rag1tm1Mom Il2rgtm1Wjl/SzJ), urine

Structure (SMILES): CCCC[C@H](NC(=O)CN1CCC(NC(=O)CN2CCN(CC(=O)O)CCN(CC(=O)O)CCN(CC(=O)O)CC2)CC1)C(=O)N[C@H]1CC(=O)NCCCC[C@@H](C(N)=O)N(C)C(=O)[C@H](Cc2c[nH]c3ccccc23)N(C)C(=O)[C@H](CCCNC(=N)N)N(C)C(=O)[C@@H](Cc2ccccc2)NC(=O)[C@H](Cc2c[nH]cn2)N(C)C1=O [^68Ga-labeled CCZ01099, metal not drawn]
- In vivo urine stability, intact tracer [1]: 34.0±10.4%

Structure (SMILES): CCCC[C@H](NC(=O)CN1CCC(NC(=O)[C@H](CCCCNC(=O)CN2CCN(CC(=O)O)CCN(CC(=O)O)CCN(CC(=O)O)CC2)NC(=O)[C@H](CCC(=O)O)NC(=O)CCCc2ccc(I)cc2)CC1)C(=O)N[C@H]1CC(=O)NCCCC[C@@H](C(N)=O)N(C)C(=O)[C@H](Cc2c[nH]c3ccccc23)NC(=O)[C@H](CCCNC(=N)N)N(C)C(=O)[C@@H](Cc2ccccc2)NC(=O)[C@H](Cc2c[nH]cn2)NC1=O [^177Lu-labeled CCZ01118, metal not drawn]
- tissue uptake at 1 h [2, 3]: 1.18 ± 0.08 %ID/g
- tissue uptake at 4 h [2, 3]: 0.45 ± 0.26 %ID/g
- tissue uptake at 24 h [2, 3]: 0.1 ± 0.05 %ID/g
- tissue uptake at 120 h [2, 3]: 0.08 ± 0.02 %ID/g
- tissue uptake at 1 h [2, 4]: 0.59 ± 0.08 %ID/g
- tissue uptake at 4 h [2, 4]: 1.53 ± 2.82 %ID/g
- tissue uptake at 24 h [2, 4]: 0.06 ± 0.01 %ID/g
- tissue uptake at 120 h [2, 4]: 0.03 ± 0.01 %ID/g
- tissue uptake at 1 h [2, 5]: 10.5 ± 3.29 %ID/g
- tissue uptake at 4 h [2, 5]: 14 ± 2.36 %ID/g
- tissue uptake at 24 h [2, 5]: 10.1 ± 2.13 %ID/g
- tissue uptake at 120 h [2, 5]: 4.8 ± 0.26 %ID/g
- tissue uptake at 1 h [2, 6]: 2.99 ± 2.15 %ID/g
- tissue uptake at 4 h [2, 6]: 1.21 ± 0.59 %ID/g
- tissue uptake at 24 h [2, 6]: 0.27 ± 0.13 %ID/g
- tissue uptake at 120 h [2, 6]: 0.3 ± 0.16 %ID/g
- tissue uptake at 1 h [2, 7]: 9.63 ± 0.78 %ID/g
- tissue uptake at 4 h [2, 7]: 2.46 ± 0.64 %ID/g
- tissue uptake at 24 h [2, 7]: 0.07 ± 0.03 %ID/g
- tissue uptake at 120 h [2, 7]: 0.02 %ID/g
- tissue uptake at 1 h [2, 8]: 1.1 ± 0.5 %ID/g
- tissue uptake at 4 h [2, 8]: 0.35 ± 0.08 %ID/g
- tissue uptake at 24 h [2, 8]: 0.15 ± 0.02 %ID/g
- tissue uptake at 120 h [2, 8]: 0.26 ± 0.39 %ID/g
- tissue uptake at 1 h [2, 9]: 0.17 ± 0.02 %ID/g
- tissue uptake at 4 h [2, 9]: 0.06 ± 0.01 %ID/g
- tissue uptake at 24 h [2, 9]: 0.01 %ID/g
- tissue uptake at 120 h [2, 9]: 0.01 %ID/g
- tissue uptake at 1 h [2, 10]: 2.5 ± 0.3 %ID/g
- tissue uptake at 4 h [2, 10]: 0.84 ± 0.23 %ID/g
- tissue uptake at 24 h [2, 10]: 0.14 ± 0.04 %ID/g
- tissue uptake at 120 h [2, 10]: 0.08 ± 0.02 %ID/g
- tissue uptake at 1 h [2, 11]: 1.42 ± 0.22 %ID/g
- tissue uptake at 4 h [2, 11]: 0.79 ± 0.5 %ID/g
- tissue uptake at 24 h [2, 11]: 0.19 ± 0.03 %ID/g
- tissue uptake at 120 h [2, 11]: 0.08 ± 0.01 %ID/g
- tissue uptake at 1 h [2, 12]: 13.4 ± 2.53 %ID/g
- tissue uptake at 4 h [2, 12]: 12.8 ± 2.29 %ID/g
- tissue uptake at 24 h [2, 12]: 6.48 ± 1.25 %ID/g
- tissue uptake at 120 h [2, 12]: 1.69 ± 0.13 %ID/g
- tissue uptake at 1 h [2, 13]: 6.91 ± 1.09 %ID/g
- tissue uptake at 4 h [2, 13]: 5.77 ± 1.62 %ID/g
- tissue uptake at 24 h [2, 13]: 4.36 ± 1.11 %ID/g
- tissue uptake at 120 h [2, 13]: 2.42 ± 0.33 %ID/g
- tissue uptake at 1 h [2, 14]: 6.59 ± 1.06 %ID/g
- tissue uptake at 4 h [2, 14]: 2.5 ± 0.67 %ID/g
- tissue uptake at 24 h [2, 14]: 0.86 ± 0.87 %ID/g
- tissue uptake at 120 h [2, 14]: 0.15 ± 0.12 %ID/g
- tissue uptake at 1 h [2, 15]: 0.98 ± 0.12 %ID/g
- tissue uptake at 4 h [2, 15]: 0.36 ± 0.11 %ID/g
- tissue uptake at 24 h [2, 15]: 0.05 ± 0.01 %ID/g
- tissue uptake at 120 h [2, 15]: 0.02 ± 0.01 %ID/g
- tissue uptake at 1 h [2, 16]: 1.4 ± 0.24 %ID/g
- tissue uptake at 4 h [2, 16]: 0.49 ± 0.08 %ID/g
- tissue uptake at 24 h [2, 16]: 0.1 ± 0.02 %ID/g
- tissue uptake at 120 h [2, 16]: 0.05 %ID/g
- tissue uptake at 1 h [2, 17]: 3.06 ± 0.53 %ID/g
- tissue uptake at 4 h [2, 17]: 1.45 ± 0.33 %ID/g
- tissue uptake at 24 h [2, 17]: 1.2 ± 0.56 %ID/g
- tissue uptake at 120 h [2, 17]: 0.98 ± 0.29 %ID/g
- tissue uptake at 1 h [2, 18]: 0.56 ± 0.1 %ID/g
- tissue uptake at 4 h [2, 18]: 0.44 ± 0.25 %ID/g
- tissue uptake at 24 h [2, 18]: 0.36 ± 0.2 %ID/g
- tissue uptake at 120 h [2, 18]: 0.13 ± 0.05 %ID/g
- tissue uptake at 1 h [2, 19]: 1.58 ± 0.32 %ID/g
- tissue uptake at 4 h [2, 19]: 0.84 ± 0.2 %ID/g
- tissue uptake at 24 h [2, 19]: 0.22 ± 0.04 %ID/g
- tissue uptake at 120 h [2, 19]: 0.16 ± 0.04 %ID/g
- tissue uptake at 1 h [2, 20]: 4.03 ± 0.45 %ID/g
- tissue uptake at 4 h [2, 20]: 3.11 ± 0.46 %ID/g
- tissue uptake at 24 h [2, 20]: 2.49 ± 0.64 %ID/g
- tissue uptake at 120 h [2, 20]: 1.83 ± 0.21 %ID/g
- tissue to tissue ratio at 1 h [2, 21]: 1.08 ± 0.3
- tissue to tissue ratio at 4 h [2, 21]: 5.84 ± 0.96
- tissue to tissue ratio at 24 h [2, 21]: 165 ± 50.1
- tissue to tissue ratio at 120 h [2, 21]: 246 ± 28.6
- tissue to tissue ratio at 1 h [2, 22]: 0.77 ± 0.12
- tissue to tissue ratio at 4 h [2, 22]: 1.1 ± 0.08
- tissue to tissue ratio at 24 h [2, 22]: 1.55 ± 0.1
- tissue to tissue ratio at 120 h [2, 22]: 2.85 ± 0.22
- tissue to tissue ratio at 1 h [2, 23]: 10.6 ± 2.98
- tissue to tissue ratio at 4 h [2, 23]: 41.5 ± 9.8
- tissue to tissue ratio at 24 h [2, 23]: 201 ± 10.4
- tissue to tissue ratio at 120 h [2, 23]: 269 ± 79.1
- excreta dose per gram or mL at 1 h [2, 24]: 376 ± 154 %ID/g
- excreta dose per gram or mL at 4 h [2, 24]: 154 ± 39.2 %ID/g
- excreta dose per gram or mL at 24 h [2, 24]: 5.39 ± 1.23 %ID/g
- excreta dose per gram or mL at 120 h [2, 24]: 1.12 ± 0.38 %ID/g

— US11395857B2, “Radiolabeled melanocortin 1 receptor-specific alpha-melanocyte-stimulating hormone analogues for imaging or therapy” (PROVINCIAL HEALTH SERVICES AUTHORITY, priority 2018, dated 2022)
